From PubChem BioAssay (NCI)
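Tested at 5 concentrations; 48 h exposure; 96-well plates; endpoints linearly interpolated, else capped at highest concentration. GI50 = concentration required for 50% inhibition of growth. TGI denotes the concentration required for complete inhibition of growth.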

What was measured:
Assay in all cases: NCI-60 cell line screen, 48 h
[1] = test system: HCT-116 colon
[2] = test system: RXF 393 renal
[3] = test system: SN12C renal
[4] = test system: UACC-257 melanoma
[5] = test system: DU-145 prostate
[6] = test system: HS 578T breast
[7] = test system: TK-10 renal
[8] = test system: UO-31 renal
[9] = test system: SK-MEL-28 melanoma
[10] = test system: MALME-3M melanoma
[11] = test system: SNB-19 CNS
[12] = test system: HOP-62 NSCLC
[13] = test system: A549 NSCLC
[14] = test system: MOLT-4 leukemia
[15] = test system: OVCAR-4 ovarian
[16] = test system: OVCAR-3 ovarian
[17] = test system: SK-MEL-5 melanoma
[18] = test system: KM12 colon
[19] = test system: NCI-H460 lung
[20] = test system: MDA-MB-435
[21] = test system: UACC-62 melanoma
[22] = test system: OVCAR-5 ovarian
[23] = test system: HCC-2998 colon
[24] = test system: CCRF-CEM leukemia
[25] = test system: IGROV1 ovarian
[26] = test system: COLO 205 colon
[27] = test system: SK-OV-3 ovarian
[28] = test system: SNB-75 CNS
[29] = test system: ACHN renal
[30] = test system: RPMI-8226 leukemia

## COc1cc(C(=O)c2c(-c3ccccc3)oc3c(OC)cccc23)cc(OC)c1O
[1]
  TGI: > 100 µM
[2]
  GI50: 0.313 µM
  TGI: 2 µM
[3]
  GI50: 1.46 µM
  TGI: > 100 µM
[4]
  GI50: 63.5 µM
  TGI: > 100 µM
[5]
  GI50: 0.554 µM
  TGI: > 100 µM
[6]
  GI50: 0.405 µM
[7]
  GI50: 15 µM
  TGI: > 81.9 µM
[8]
  GI50: 0.648 µM
  TGI: > 100 µM
[9]
  GI50: 4.09 µM
  TGI: > 100 µM
[10]
  GI50: 0.509 µM
  TGI: > 100 µM
[11]
  GI50: 1.76 µM
  TGI: > 100 µM
[12]
  GI50: 0.641 µM
  TGI: > 100 µM
[13]
  GI50: 0.751 µM
  TGI: > 100 µM
[14]
  GI50: 0.605 µM
  TGI: > 100 µM
[15]
  GI50: 2.82 µM
  TGI: > 100 µM
[16]
  GI50: 0.302 µM
  TGI: 1.66 µM
[17]
  GI50: 0.651 µM
  TGI: 8.62 µM
[18]
  GI50: 0.45 µM
  TGI: > 51.2 µM
[19]
  GI50: 0.401 µM
  TGI: > 22.1 µM
[20]
  GI50: 0.162 µM
  TGI: 0.459 µM
[21]
  GI50: 0.583 µM
  TGI: > 100 µM
[22]
  GI50: 3.22 µM
  TGI: > 100 µM
[23]
  GI50: 1.96 µM
  TGI: > 100 µM
[24]
  GI50: 0.414 µM
  TGI: > 100 µM
[25]
  GI50: 0.654 µM
  TGI: > 100 µM
[26]
  GI50: 2.05 µM
  TGI: 5.23 µM
[27]
  GI50: 0.765 µM
  TGI: > 100 µM
[28]
  GI50: 0.184 µM
  TGI: 0.605 µM
[29]
  GI50: 0.664 µM
  TGI: > 100 µM
[30]
  GI50: 0.403 µM
  TGI: 5.75 µM
